Assay results reported in US8791102B2, “Acetanilide sphingosine-1-phosphate receptor antagonists” (Exelixis, Inc., priority 2008, dated 2014).

Target: T1, human S1P1 receptors (Homo sapiens, UniProt P21453)
T1 construct: host or cells: HEK293
Assay: S1P1R antagonist assay (fluorescent membrane potential dye, cAMP readout)
Format: cell-based
Settings: HEK293 cells expressing human S1P1 receptors and CNG channel; 500 nM NECA; S1P1R agonist 10 nM; 90 minutes; read-out: EC50 or IC50 value

T1 sequence (P21453 whole entry): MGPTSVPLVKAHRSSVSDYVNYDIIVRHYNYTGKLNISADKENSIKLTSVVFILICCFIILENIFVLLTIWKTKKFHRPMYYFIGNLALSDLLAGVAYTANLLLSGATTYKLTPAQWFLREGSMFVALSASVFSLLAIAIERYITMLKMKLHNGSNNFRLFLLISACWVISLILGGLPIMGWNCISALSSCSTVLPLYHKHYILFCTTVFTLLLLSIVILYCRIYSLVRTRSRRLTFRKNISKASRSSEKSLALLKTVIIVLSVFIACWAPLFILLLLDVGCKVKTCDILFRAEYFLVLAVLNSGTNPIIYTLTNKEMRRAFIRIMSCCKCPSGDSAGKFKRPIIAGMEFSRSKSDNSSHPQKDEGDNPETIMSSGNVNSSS

SMILES | IC50
COCCOCC(=O)N1C[C@H](Cc2ccccc2)C[C@H]1C(=O)Nc1ccc(Oc2ccc(F)cc2)cc1 [Compound 88, (2S,4R)-4-benzyl-N-(4-(4-fluorophenoxy)phenyl)-1-(2-(2-methoxyethoxy)acetyl)pyrrolidine-2-carboxamide] | ≤ 300 nM
O=C(Nc1ccc(Oc2ccc(Cl)cc2)cc1)[C@@H]1C[C@@H](Cc2ccccc2)CN1C(=O)Cn1cncn1 [Compound 79, (2S,4R)-1-(2-(1H-1,2,4-triazol-1-yl)acetyl)-4-benzyl-N-(4-(4-chlorophenoxy)phenyl)pyrrolidine-2-carboxamide] | ≤ 300 nM
Cc1cc(CC(=O)N2C[C@H](Cc3ccccc3)C[C@H]2C(=O)Nc2ccc(Oc3ccc(F)cc3)cc2)n[nH]1 [Compound 177, (2S,4R)-4-benzyl-N-(4-(4-fluorophenoxy)phenyl)-1-(2-(5-methyl-1H-pyrazol-3-yl)acetyl)pyrrolidine-2-carboxamide] | ≤ 300 nM
O=C(N[C@@H]1C[C@@H](C(=O)Nc2ccc(Oc3ccc(F)cc3)cc2)N(C(=O)Cc2cnc[nH]2)C1)OCc1ccccc1 [Compound 253, benzyl (3R,5S)-1-(2-(1H-imidazol-5-yl)acetyl)-5-(4-(4-fluorophenoxy)phenylcarbamoyl)pyrrolidin-3-ylcarbamate] | ≤ 300 nM
CCCOc1ccc(C(=O)NC(COCc2ccccc2)C(=O)Nc2ccc(Oc3ccccc3)cc2)cc1 (stereo not shown) [Compound 345, N-(2-oxo-1-{[(phenylmethyl)oxy]methyl}-2-{[4-(phenyloxy)phenyl]amino}ethyl)-4-(propyloxy)benzamide] | > 1000 nM
CN(C)C(=O)CCC(=O)NC(COCc1ccccc1)C(=O)Nc1ccc(Oc2ccccc2)cc1 (stereo not shown) [Compound 339, N,N-dimethyl-N′-(2-oxo-1-{[(phenylmethyl)oxy]methyl}-2-{[4-(phenyloxy)phenyl]amino}ethyl)butanediamide] | > 1000 nM
O=C(Nc1ccc(Oc2ccc(F)cc2)cc1)[C@@H]1C[C@@H](Cc2ccccc2)CN1C(=O)CN1C(=O)c2ccccc2C1=O [Compound 97] | ≤ 300 nM
O=C(Nc1ccc(Oc2ccc(F)cc2)cc1)[C@@H]1C[C@@H](Cc2ccccc2)CN1C(=O)Cc1c[nH]c2ccccc12 [Compound 98, (2S,4R)-1-(2-(1H-indol-3-yl)acetyl)-4-benzyl-N-(4-(4-fluorophenoxy)phenyl)pyrrolidine-2-carboxamide] | ≤ 300 nM
O=C(CCN1C(=O)c2ccccc2C1=O)NC(COCc1ccccc1)C(=O)Nc1ccc(Oc2ccccc2)cc1 (stereo not shown) [Compound 322, N-(2-oxo-1-{[(phenylmethyl)oxy]methyl}-2-{[4-(phenyloxy)phenyl]amino}ethyl)-3-(1,3-dioxoisoindolin-2-yl)propanamide] | > 1000 nM
O=C(Nc1ccc(Oc2ccc(F)cc2)cc1)[C@@H]1C[C@@H](Cc2ccc(Cl)s2)CN1C(=O)Cn1nccn1 [Compound 66, (2S,4S)-1-(2-(2H-1,2,3-triazol-2-yl)acetyl)-4-((5-chlorothien-2-yl)methyl)-N-(4-(4-fluorophenoxy)phenyl)pyrrolidine-2-carboxamide] | ≤ 300 nM
O=C(Nc1ccc(Oc2ccc(F)cc2)cc1)[C@@H]1C[C@@H](c2ccccc2)CN1C(=O)Cn1nccn1 [Compound 77, (2S,4S)-1-(2-(2H-1,2,3-triazol-2-yl)acetyl)-N-(4-(4-fluorophenoxy)phenyl)-4-phenylpyrrolidine-2-carboxamide] | 300 to 1000 nM
CCCC(C)C(=O)NC(COCc1ccccc1)C(=O)Nc1ccc(Oc2ccccc2)cc1 (stereo not shown) [Compound 286, 2-methyl-N-(2-oxo-1-{[(phenylmethyl)oxy]methyl}-2-{[4-(phenyloxy)phenyl]amino}ethyl)pentanamide] | > 1000 nM
O=C(NC(COCc1ccccc1)C(=O)Nc1ccc(Oc2ccccc2)cc1)c1cnnc2ccccc12 (stereo not shown) [Compound 356, N-(2-oxo-1-{[(phenylmethyl)oxy]methyl}-2-{[4-(phenyloxy)phenyl]amino}ethyl)cinnoline-4-carboxamide] | 300 to 1000 nM
O=C(NC(COCc1ccccc1)C(=O)Nc1ccc(Oc2ccccc2)cc1)c1ccc2[nH]ccc2c1 (stereo not shown) [Compound 20, N-(3-(benzyloxy)-1-oxo-1-(4-phenoxyphenylamino)propan-2-yl)-1H-indole-5-carboxamide] | > 1000 nM

Other lines, results leading:

IC50 | SMILES
≤ 300 nM | O=C(CN1CC=CC1)N[C@@H](COCc1ccccc1)C(=O)Nc1ccc(Oc2ccc(F)cc2)cc1 [Compound 214, (S)-3-(benzyloxy)-2-(2-(2,5-dihydro-1H-pyrrol-1-yl)acetamido)-N-(4-(4-fluorophenoxy)phenyl)propanamide]
≤ 300 nM | O=C(Cc1ccccn1)N[C@@H](COCc1ccccc1)C(=O)Nc1ccc(Oc2ccc(F)cc2)cc1 [Compound 246, (S)-3-(benzyloxy)-N-(4-(4-fluorophenoxy)phenyl)-2-(2-(pyridin-2-yl)acetamido)propanamide]
300 to 1000 nM | O=C(CN1CCN(C(=O)C2CCCO2)CC1)N[C@@H](COCc1ccccc1)C(=O)Nc1ccc(Oc2ccc(F)cc2)cc1 (stereo partly drawn) [Compound 237, (2S)-3-(benzyloxy)-N-(4-(4-fluorophenoxy)phenyl)-2-(2-(4-(tetrahydrofuran-2-carbonyl)piperazin-1-yl)acetamido)propanamide]
> 1000 nM | CC1CCCN(CC(=O)N[C@@H](COCc2ccccc2)C(=O)Nc2ccc(Oc3ccc(F)cc3)cc2)C1 (stereo partly drawn) [Compound 46, (2S)-3-(benzyloxy)-N-(4-(4-fluorophenoxy)phenyl)-2-(2-(3-methylpiperidin-1-yl)acetamido)propanamide]
> 1000 nM | CC(=O)OCC(=O)NC(COCc1ccccc1)C(=O)Nc1ccc(Oc2ccccc2)cc1 (stereo not shown) [Compound 388, 2-oxo-2-[(2-oxo-1-{[(phenylmethyl)oxy]methyl}-2-{[4-(phenyloxy)phenyl]amino}ethyl)amino]ethyl acetate]
≤ 300 nM | Cc1n[nH]c(C)c1CC(=O)N[C@@H](COCc1ccccc1)C(=O)Nc1ccc(Oc2ccc(F)cc2)cc1 [Compound 152, (S)-3-(benzyloxy)-2-(2-(3,5-dimethyl-1H-pyrazol-4-yl)acetamido)-N-(4-(4-fluorophenoxy)phenyl)propanamide]
300 to 1000 nM | O=C(CN1Cc2ccccc2C1)N[C@@H](COCc1ccccc1)C(=O)Nc1ccc(Oc2ccc(F)cc2)cc1 [Compound 240, (S)-3-(benzyloxy)-N-(4-(4-fluorophenoxy)phenyl)-2-(2-(isoindolin-2-yl)acetamido)propanamide]
> 1000 nM | COc1cccc(CC(=O)NC(COCc2ccccc2)C(=O)Nc2ccc(Oc3ccccc3)cc2)c1 (stereo not shown) [Compound 285, N-(2-oxo-1-{[(phenylmethyl)oxy]methyl}-2-{[4-(phenyloxy)phenyl]amino}ethyl)-3-methoxyphenylacetamide]
300 to 1000 nM | O=C(CN1CCC(Cc2ccccc2)CC1)N[C@@H](COCc1ccccc1)C(=O)Nc1ccc(Oc2ccc(F)cc2)cc1 [Compound 220, (S)-3-(benzyloxy)-2-(2-(4-benzylpiperidin-1-yl)acetamido)-N-(4-(4-fluorophenoxy)phenyl)propanamide]
≤ 300 nM | CC1CN(CC(=O)N[C@@H](COCc2ccccc2)C(=O)Nc2ccc(Oc3ccc(F)cc3)cc2)CC(C)O1 (stereo partly drawn) [Compound 265, (2S)-3-(benzyloxy)-2-(2-(2,6-dimethylmorpholino)acetamido)-N-(4-(4-fluorophenoxy)phenyl)propanamide]
> 1000 nM | C#CCCC(=O)NC(COCc1ccccc1)C(=O)Nc1ccc(Oc2ccccc2)cc1 (stereo not shown) [Compound 344, N-(2-oxo-1-{[(phenylmethyl)oxy]methyl}-2-{[4-(phenyloxy)phenyl]amino}ethyl)pent-4-ynamide]
